Target: Concanavalin A (Canavalia ensiformis, UniProt P02866)
Assay: Screening of acyl hydrazone libraries against Concanavalin A, competitive binding assay
Experimental: The library was then made up of one part (40 μL) of each of these solutions, buffered with sodium acetate buffer (50 μL, 1 M, pH 4.0), and diluted with water (510 μL) to a final concentration of 1 mM of each building block, and 50 mM buffer. The resulting libraries were allowed to equilibrate for one week at room temperature to assure complete reaction, and used directly, or following concentration/dilution, in the subsequent screening tests.

With `NNC(=O)CCCCCCCCC(=O)NN` [SED, sebacoyldihydrazide] as the compound, how does the “contribution of building block to the binding to Concanavalin A” value read?
The value was “important contributions to the binding”.

— patent US20040043417A1, “Generation and screening of a dynamic combinatorial library” (priority 2000, published 2004)
